Measured values taken from patent publication US20230109833A1, “METABOLICALLY STABLE N-ACYLAMINOOXADIAZOLES USEFUL AS ANTIBACTERIAL AGENTS” (MICROBIOTIX, INC., priority 2017, published 2023).

Columns and labels:
Adrenergic β2 = Adrenergic β2 (Homo sapiens, UniProt P07550); format: binding; settings: 10 μM compound, Hit Profile Panel
[1] = test system: Calcium Channel L-type, Dihydropyridine; format: binding; settings: rat; 10 μM compound; Hit Profile Panel
CYP3A4 = target: T1, CYP3A4 (Homo sapiens, UniProt P08684); test: CYP450 inhibition; format: biochemical; settings: 10 μM compound, Hit Profile Panel; for inhibition at 10 µM: read-out: % Inhibition, CYP450, 3A4
T1 construct: purchased BD Gentest Corp., Woburn, Mass
Protocol: (§1) Because inhibition of cytochrome P450 (CYP450) enzymes in vitro is predictive of potential drug interactions in vivo, CYP450 inhibition was measured using commercially available Human Cytochrome P450 kits (BD Gentest Corp., Woburn, Mass.) for the major CYP450s: CYP3A4 and CYP2D6. The assays were performed according to the manufacturer's instructions.

CYP2D6 = target: T2, CYP2D6 (Homo sapiens, UniProt P10635); test: CYP450 inhibition; format: biochemical; settings: 10 μM compound, Hit Profile Panel; for inhibition at 10 µM: read-out: % Inhibition, CYP450, 2D6
T2 construct: purchased BD Gentest Corp., Woburn, Mass
Protocol: as §1

Sigma σ1 = Sigma σ1 (Homo sapiens, UniProt Q99720); format: binding; settings: 10 μM compound, Hit Profile Panel
Adrenergic α1A = target: T3, Adrenergic α1A (Rattus norvegicus, UniProt P43140); format: binding; settings: 10 μM compound, Hit Profile Panel
T3 sequence (P43140 1-466): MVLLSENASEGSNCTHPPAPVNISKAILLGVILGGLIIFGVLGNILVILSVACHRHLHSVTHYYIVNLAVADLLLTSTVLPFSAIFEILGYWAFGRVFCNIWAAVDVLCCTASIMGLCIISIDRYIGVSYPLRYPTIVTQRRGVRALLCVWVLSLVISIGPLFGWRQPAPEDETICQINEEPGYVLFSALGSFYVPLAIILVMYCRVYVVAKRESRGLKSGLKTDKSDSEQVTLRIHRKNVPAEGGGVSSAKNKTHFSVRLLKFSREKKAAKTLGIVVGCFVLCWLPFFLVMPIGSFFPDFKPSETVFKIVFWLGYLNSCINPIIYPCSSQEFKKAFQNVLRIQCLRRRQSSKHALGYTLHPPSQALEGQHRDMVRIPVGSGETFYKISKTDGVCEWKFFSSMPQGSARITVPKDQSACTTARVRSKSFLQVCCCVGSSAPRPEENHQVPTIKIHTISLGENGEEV

Histamine, H1 = Histamine, H1 (Homo sapiens, UniProt P35367); format: binding; settings: 10 μM compound, Hit Profile Panel
Opiate μ(OP3, MOP) = Opiate μ(OP3, MOP) (Homo sapiens, UniProt P35372); format: binding; settings: 10 μM compound, Hit Profile Panel
Muscarinic M3 = Muscarinic M3 (Homo sapiens, UniProt P20309); format: binding; settings: 10 μM compound, Hit Profile Panel
Adrenergic α2A = target: T4, Adrenergic α2A (Homo sapiens, UniProt P08913); format: binding; settings: 10 μM compound, Hit Profile Panel
T4 sequence (P08913 1-465): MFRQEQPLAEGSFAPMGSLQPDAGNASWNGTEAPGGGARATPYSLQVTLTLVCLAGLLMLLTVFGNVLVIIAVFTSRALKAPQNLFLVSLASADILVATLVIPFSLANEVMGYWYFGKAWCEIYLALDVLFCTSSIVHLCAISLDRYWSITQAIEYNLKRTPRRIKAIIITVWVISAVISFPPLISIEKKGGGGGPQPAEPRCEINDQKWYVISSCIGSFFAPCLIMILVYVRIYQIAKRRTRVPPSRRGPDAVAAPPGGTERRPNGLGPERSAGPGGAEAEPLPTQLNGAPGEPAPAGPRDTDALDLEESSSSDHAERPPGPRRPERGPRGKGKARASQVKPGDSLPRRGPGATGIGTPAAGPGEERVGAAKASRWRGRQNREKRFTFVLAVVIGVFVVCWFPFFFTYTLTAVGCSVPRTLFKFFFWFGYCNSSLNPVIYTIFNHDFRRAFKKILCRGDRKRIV

[2] = target: Transporter, Norepinephrine (NET) (Homo sapiens, UniProt P23975); format: binding; settings: 10 μM compound, Hit Profile Panel
Adrenergic β1 = Adrenergic β1 (Homo sapiens, UniProt P08588); format: binding; settings: 10 μM compound, Hit Profile Panel
Rolipram = format: binding; settings: rat; 10 μM compound; Hit Profile Panel
[3] = test system: GABAA, Flunitrazepam, Central; format: binding; settings: rat; 10 μM compound; Hit Profile Panel
Muscarinic M2 = target: T5, Muscarinic M2 (Homo sapiens, UniProt P08172); format: binding; settings: 10 μM compound, Hit Profile Panel
T5 sequence (P08172 1-466): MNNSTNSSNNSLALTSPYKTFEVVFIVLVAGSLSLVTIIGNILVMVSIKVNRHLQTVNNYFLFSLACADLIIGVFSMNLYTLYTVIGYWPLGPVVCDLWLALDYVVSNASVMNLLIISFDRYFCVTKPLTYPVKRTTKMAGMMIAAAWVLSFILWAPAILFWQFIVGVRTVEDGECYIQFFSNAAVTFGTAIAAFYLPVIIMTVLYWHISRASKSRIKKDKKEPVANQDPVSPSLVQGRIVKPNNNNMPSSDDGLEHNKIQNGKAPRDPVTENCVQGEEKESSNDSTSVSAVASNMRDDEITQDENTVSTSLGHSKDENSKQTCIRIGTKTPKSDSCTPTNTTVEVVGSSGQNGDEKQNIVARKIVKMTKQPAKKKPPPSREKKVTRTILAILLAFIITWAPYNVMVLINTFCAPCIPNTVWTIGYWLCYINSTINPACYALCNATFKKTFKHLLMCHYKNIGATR

Dopamine D2s = Dopamine D2s (Homo sapiens, UniProt P14416); format: binding; settings: 10 μM compound, Hit Profile Panel
Phorbol Ester = format: binding; settings: mouse; 10 μM compound; Hit Profile Panel
Potassium Channel (KATP) = Potassium Channel (KATP) (Cricetus cricetus, UniProt Q09427); format: binding; settings: hamster; 10 μM compound; Hit Profile Panel
[4] = target: Seritonin (5-Hydroxytryptamine) 5-HT2B (Homo sapiens, UniProt P41595); format: binding; settings: 10 μM compound, Hit Profile Panel
Seritonin (5-Hydroxytryptamine) 5-HT2B, sequence (P41595 whole entry): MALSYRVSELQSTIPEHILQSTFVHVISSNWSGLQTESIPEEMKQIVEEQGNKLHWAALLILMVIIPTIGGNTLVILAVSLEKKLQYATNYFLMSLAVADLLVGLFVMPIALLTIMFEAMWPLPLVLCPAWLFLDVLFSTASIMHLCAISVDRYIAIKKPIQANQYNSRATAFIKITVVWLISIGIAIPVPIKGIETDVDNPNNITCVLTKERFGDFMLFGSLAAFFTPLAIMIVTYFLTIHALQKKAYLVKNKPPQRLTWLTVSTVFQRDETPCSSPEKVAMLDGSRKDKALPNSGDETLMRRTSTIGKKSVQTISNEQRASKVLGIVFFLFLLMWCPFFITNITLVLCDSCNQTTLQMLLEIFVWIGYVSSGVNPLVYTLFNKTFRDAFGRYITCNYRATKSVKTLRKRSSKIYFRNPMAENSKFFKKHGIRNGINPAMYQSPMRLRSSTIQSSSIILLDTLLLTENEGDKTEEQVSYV

Potassium Channel (KATP), sequence (Q09427 whole entry): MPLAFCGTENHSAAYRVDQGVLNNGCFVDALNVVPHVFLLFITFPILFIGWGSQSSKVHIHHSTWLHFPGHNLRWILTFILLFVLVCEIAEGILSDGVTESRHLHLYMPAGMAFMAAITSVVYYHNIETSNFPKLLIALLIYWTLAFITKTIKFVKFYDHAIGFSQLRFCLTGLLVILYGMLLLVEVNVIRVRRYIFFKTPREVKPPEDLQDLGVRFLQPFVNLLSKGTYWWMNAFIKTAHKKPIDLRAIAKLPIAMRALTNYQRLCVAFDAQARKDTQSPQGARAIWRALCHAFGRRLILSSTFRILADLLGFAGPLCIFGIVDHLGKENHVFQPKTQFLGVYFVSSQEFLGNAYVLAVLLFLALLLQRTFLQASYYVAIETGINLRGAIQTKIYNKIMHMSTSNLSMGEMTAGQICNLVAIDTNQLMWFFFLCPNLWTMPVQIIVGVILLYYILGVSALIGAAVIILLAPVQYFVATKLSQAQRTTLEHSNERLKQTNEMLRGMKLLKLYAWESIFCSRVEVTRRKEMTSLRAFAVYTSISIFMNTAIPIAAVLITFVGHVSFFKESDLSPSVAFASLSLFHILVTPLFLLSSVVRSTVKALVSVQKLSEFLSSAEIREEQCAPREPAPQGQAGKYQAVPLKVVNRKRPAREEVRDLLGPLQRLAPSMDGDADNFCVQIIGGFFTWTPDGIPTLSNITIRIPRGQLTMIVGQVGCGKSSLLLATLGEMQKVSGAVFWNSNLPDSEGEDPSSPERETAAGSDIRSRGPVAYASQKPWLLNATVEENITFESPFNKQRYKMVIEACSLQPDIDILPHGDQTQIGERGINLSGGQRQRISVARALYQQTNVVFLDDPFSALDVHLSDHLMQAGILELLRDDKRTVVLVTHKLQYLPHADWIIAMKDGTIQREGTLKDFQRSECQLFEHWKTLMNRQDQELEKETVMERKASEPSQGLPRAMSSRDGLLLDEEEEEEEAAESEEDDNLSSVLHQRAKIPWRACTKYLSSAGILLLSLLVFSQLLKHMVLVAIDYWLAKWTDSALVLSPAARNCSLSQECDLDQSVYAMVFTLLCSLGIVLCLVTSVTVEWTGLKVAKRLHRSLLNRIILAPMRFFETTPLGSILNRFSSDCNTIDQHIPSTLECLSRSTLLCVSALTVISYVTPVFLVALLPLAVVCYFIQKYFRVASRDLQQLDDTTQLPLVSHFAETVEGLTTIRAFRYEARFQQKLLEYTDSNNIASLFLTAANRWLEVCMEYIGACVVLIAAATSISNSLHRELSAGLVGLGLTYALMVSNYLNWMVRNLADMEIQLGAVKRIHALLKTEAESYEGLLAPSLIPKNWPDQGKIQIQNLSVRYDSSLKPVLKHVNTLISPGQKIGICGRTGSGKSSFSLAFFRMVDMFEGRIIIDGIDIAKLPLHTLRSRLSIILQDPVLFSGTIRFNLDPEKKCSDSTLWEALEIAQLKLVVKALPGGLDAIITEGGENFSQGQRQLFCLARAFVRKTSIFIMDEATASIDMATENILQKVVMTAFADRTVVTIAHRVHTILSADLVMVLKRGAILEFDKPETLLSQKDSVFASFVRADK
Opiate μ(OP3, MOP), sequence (P35372 whole entry): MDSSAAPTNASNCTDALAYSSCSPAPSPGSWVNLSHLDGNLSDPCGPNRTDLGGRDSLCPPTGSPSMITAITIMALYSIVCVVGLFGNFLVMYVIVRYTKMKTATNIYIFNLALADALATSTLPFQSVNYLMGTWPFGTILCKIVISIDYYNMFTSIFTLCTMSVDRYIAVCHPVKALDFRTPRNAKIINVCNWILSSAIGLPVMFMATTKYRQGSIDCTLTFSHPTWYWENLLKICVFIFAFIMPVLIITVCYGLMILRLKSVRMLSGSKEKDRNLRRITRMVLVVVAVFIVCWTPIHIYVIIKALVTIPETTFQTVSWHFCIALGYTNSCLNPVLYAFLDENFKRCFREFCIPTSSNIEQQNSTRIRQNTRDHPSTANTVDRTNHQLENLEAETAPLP
Adrenergic β2, sequence (P07550 whole entry): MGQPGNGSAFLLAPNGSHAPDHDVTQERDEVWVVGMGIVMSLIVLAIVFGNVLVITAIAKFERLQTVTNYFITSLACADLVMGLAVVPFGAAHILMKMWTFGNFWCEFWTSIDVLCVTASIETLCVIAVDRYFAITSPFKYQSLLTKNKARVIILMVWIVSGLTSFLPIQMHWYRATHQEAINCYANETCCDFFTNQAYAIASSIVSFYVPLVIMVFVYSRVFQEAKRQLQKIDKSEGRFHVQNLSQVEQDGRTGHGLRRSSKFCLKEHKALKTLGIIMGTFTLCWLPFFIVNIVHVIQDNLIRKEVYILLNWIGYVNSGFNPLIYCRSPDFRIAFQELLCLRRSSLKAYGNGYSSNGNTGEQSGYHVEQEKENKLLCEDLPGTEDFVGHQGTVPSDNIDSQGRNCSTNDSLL
Adrenergic β1, sequence (P08588 whole entry): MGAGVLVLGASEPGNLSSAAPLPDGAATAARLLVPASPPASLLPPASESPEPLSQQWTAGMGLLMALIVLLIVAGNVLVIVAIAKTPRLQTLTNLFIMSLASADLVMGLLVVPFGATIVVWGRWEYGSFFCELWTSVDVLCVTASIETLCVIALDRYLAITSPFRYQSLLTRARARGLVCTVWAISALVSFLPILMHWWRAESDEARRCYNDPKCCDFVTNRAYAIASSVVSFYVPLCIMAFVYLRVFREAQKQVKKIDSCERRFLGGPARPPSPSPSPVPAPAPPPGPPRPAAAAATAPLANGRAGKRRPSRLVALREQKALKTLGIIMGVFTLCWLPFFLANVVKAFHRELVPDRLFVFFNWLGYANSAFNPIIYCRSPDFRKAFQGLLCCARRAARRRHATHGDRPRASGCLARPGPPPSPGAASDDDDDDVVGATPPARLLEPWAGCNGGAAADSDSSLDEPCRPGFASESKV
Transporter, Norepinephrine (NET), sequence (P23975 whole entry): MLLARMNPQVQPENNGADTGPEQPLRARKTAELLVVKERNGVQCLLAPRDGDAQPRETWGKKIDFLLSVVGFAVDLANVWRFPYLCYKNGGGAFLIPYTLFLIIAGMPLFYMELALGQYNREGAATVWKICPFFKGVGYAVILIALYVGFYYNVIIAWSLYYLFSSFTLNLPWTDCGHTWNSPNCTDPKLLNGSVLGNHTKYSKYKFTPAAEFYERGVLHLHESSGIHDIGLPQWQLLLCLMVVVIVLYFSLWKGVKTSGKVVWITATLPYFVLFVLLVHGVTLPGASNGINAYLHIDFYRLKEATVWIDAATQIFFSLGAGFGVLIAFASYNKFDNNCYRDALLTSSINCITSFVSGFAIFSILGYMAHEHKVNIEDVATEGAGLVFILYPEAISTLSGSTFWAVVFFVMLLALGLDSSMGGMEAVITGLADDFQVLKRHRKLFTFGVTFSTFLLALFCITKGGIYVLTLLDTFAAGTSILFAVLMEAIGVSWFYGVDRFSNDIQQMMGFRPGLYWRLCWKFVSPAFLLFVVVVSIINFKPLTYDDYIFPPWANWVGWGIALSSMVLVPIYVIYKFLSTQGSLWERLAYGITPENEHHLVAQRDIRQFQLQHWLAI
Sigma σ1, sequence (Q99720 whole entry): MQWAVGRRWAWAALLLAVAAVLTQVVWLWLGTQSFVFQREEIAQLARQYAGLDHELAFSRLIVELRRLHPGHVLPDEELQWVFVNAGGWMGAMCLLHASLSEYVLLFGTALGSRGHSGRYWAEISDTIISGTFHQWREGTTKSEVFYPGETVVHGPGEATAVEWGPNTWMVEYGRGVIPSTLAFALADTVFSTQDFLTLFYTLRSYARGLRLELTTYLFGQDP
Histamine, H1, sequence (P35367 whole entry): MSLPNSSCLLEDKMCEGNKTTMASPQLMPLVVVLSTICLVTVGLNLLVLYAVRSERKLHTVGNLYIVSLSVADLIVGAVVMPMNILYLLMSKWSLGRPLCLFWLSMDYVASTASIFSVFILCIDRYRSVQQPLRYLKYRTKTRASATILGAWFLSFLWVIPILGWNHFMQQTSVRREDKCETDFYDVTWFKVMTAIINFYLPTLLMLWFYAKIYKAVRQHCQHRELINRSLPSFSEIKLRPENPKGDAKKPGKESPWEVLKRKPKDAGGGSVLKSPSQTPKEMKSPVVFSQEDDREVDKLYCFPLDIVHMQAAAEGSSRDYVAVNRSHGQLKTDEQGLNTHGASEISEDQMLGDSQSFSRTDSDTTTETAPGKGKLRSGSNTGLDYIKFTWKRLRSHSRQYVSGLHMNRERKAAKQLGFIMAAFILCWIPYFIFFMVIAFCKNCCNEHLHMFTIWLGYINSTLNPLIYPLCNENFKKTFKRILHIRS

Structure (SMILES)	inhibition at 10 µM (Adrenergic β2) [%]	% Inhibition, Calcium Channel L-type, Dihydropyridine [1] [%]	inhibition at 10 µM (CYP3A4) [%]	inhibition at 10 µM (CYP2D6) [%]	inhibition at 10 µM (Sigma σ1) [%]	inhibition at 10 µM (Adrenergic α1A) [%]	inhibition at 10 µM (Histamine, H1) [%]	inhibition at 10 µM (Opiate μ(OP3, MOP)) [%]	inhibition at 10 µM (Muscarinic M3) [%]	inhibition at 10 µM (Adrenergic α2A) [%]	inhibition at 10 µM [2] [%]	inhibition at 10 µM (Adrenergic β1) [%]	% Inhibition, Rolipram (Rolipram) [%]	% Inhibition, GABAA, Flunitrazepam, Central [3] [%]	inhibition at 10 µM (Muscarinic M2) [%]	inhibition at 10 µM (Dopamine D2s) [%]	% Inhibition, Phorbol Ester (Phorbol Ester) [%]	inhibition at 10 µM (Potassium Channel (KATP)) [%]	inhibition at 10 µM [4] [%]	further results
O=C(Nc1nnc(-c2ccc(F)cc2)o1)c1ccc(OC2CCCCC2)cc1 [compound 4292]	6	23	4	2	10	9	-8	4	0	3	77	3	−8	−1	0	1	2	8	-7	–
O=C(Nc1nnc(-c2ccc(F)cc2)o1)N1CCc2ccccc2C1 [MBX-4132]	–	15	–	–	–	–	–	–	–	–	–	–	2	13	–	–	4	–	–	% Inhibition, Adrenergic β2 (Adrenergic β2): 36%; % Inhibition, CYP450, 3A4 (CYP3A4): 7%; % Inhibition, CYP450, 2D6 (CYP2D6): 10%; % Inhibition, Sigma σ1 (Sigma σ1): −4%; % Inhibition, Adrenergic α1A (Adrenergic α1A): 24%; % Inhibition, Histamine, H1 (Histamine, H1): 17%; % Inhibition, Opiate μ(OP3, MOP) (Opiate μ(OP3, MOP)): 74%; % Inhibition, Muscarinic M3 (Muscarinic M3): 16%; % Inhibition, Adrenergic α2A (Adrenergic α2A): 54%; % Inhibition, Transporter, Norepinephrine (NET) [2]: 50%; % Inhibition, Adrenergic β1 (Adrenergic β1): −10%; % Inhibition, Muscarinic M2 (Muscarinic M2): 13%; % Inhibition, Dopamine D2s (Dopamine D2s): 25%; % Inhibition, Potassium Channel (KATP) (Potassium Channel (KATP)): 10%; % Inhibition, Seritonin (5-Hydroxytryptamine) 5-HT2B [4]: 53%
O=C(Nc1nnc(-c2ccc(F)cc2)o1)N1CC=C(C(F)(F)F)CC1 [compound 4347]	8	16	9	9	-2	-21	22	-14	2	9	32	3	−6	22	2	-2	7	2	-1	–
